Results published in patent US7704995B2 (Exelixis, Inc., priority 2003, dated 2010).
pIC50: −log10 of the molar value.

Molecular target: T1, Chk1 (Homo sapiens, UniProt O14757)
T1 construct: purchased Upstate Biotechnology
T1 sequence (O14757 1-476): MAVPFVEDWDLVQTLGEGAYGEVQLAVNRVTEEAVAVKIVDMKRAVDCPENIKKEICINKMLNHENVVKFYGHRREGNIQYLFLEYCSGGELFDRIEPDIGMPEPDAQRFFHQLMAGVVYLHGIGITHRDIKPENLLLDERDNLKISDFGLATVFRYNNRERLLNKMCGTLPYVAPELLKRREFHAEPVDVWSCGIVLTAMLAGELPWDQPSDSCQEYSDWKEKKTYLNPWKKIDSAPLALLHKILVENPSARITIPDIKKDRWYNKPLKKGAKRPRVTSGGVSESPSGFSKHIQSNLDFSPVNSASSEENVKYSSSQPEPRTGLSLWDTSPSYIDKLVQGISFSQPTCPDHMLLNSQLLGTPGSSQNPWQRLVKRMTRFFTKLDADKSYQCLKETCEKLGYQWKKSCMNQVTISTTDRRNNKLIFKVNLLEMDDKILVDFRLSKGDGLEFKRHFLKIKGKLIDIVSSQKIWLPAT
Assay: Chk1 kinase assay: incorporation of γ-33P ATP into immobilized myelin basic protein
Assay type: biochemical
Details: Table 11, Chk1 only; class symbols A-D; read-out: Chk1 IC50
Summary of the method: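 Enzyme activity is measured as γ-33P transfer from ATP onto immobilized MBP over 1 h at room temperature, with Chk1 at 10 nM/10 μM unlabeled ATP and Chk2 at 20 nM/30 μM unlabeled ATP. Compounds are tested in 1% DMSO.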

pIC50	SMILES
> 7.30	CSc1ccc(CC(=O)Nc2cccc(-c3cnc(N)c(C(=O)N[C@H]4CCCNC4)n3)c2)cc1 [Example 889, 3-amino-6-[3-({[4-(methylthio)phenyl]acetyl}amino)phenyl]-N-[(3S)-piperidin-3-yl]pyrazine-2-carboxamide]
> 7.30	COc1cccc(-c2cnc(N)c(C(=O)N[C@H]3CCCNC3)n2)c1 [Example 961, 3-amino-6-[3-(methyloxy)phenyl]-N-[(3S)-piperidin-3-yl]pyrazine-2-carboxamide]
5.00 to 6.00	CC(C)(C)OC(=O)N1CC[C@H](NC(=O)c2nc(-c3cccc(C(=O)NCc4ccc(Cl)c(Cl)c4)c3)cnc2N)C1 [Example 823, 1,1-dimethylethyl (3S)-3-[({3-amino-6-[3-({[(3,4-dichlorophenyl)methyl]amino}carbonyl)phenyl]pyrazin-2-yl}carbonyl)amino]pyrrolidine-1-carboxylate]
5.00 to 6.00	CC(C)(C)OC(=O)N1CC[C@H](NC(=O)c2nc(-c3cccc(C(=O)NCc4ccc(Cl)cc4Cl)c3)cnc2N)C1 [Example 822, 1,1-dimethylethyl (3S)-3-[({3-amino-6-[3-({[(2,4-dichlorophenyl)methyl]amino}carbonyl)phenyl]pyrazin-2-yl}carbonyl)amino]pyrrolidine-1-carboxylate]
> 7.30	Nc1ncc(-c2cccc(C(=O)NCc3cc(F)c(F)c(F)c3)c2)nc1C(=O)N[C@H]1CCCNC1 [Example 1028, 3-amino-N-[(3S)-piperidin-3-yl]-6-[3-({[(3,4,5-trifluorophenyl)methyl]amino}carbonyl)phenyl]pyrazine-2-carboxamide]

Same assay, conditions: Table 11; Chk1 only; read-out: Chk1 IC50

pIC50	SMILES
6.00 to 7.30	CNC(=O)c1nc(-c2cccc(CNC3CCc4c(Cl)cc(Cl)cc43)c2)cnc1N (centres unmarked) [Example 486, 3-amino-6-(3-{[(4,6-dichloro-2,3-dihydro-1H-inden-1-yl)amino]methyl}phenyl)-N-methylpyrazine-2-carboxamide]
≤ 5.00	CCOC(=O)[C@H](Cc1ccc(O)cc1)NC(=O)c1nc(-c2cccc(C(=O)NCc3ccccc3)c2)cnc1N [Example 610, ethyl N-{[3-amino-6-(3-{[(phenylmethyl)amino]carbonyl}phenyl)pyrazin-2-yl]carbonyl}-L-tyrosinate]
6.00 to 7.30	Nc1ncc(-c2cccc(C(=O)NCc3ccccc3)c2)nc1C(=O)NC1CCNC1 (centres unmarked) [Example 568, 3-amino-6-(3-{[(phenylmethyl)amino]carbonyl}phenyl)-N-pyrrolidin-3-ylpyrazine-2-carboxamide]
5.00 to 6.00	Nc1ncc(-c2cccc(CN[C@H]3CCc4ccccc43)c2)nc1C(=O)NCCCCCO [Example 538, 3-amino-6-(3-{[(1S)-2,3-dihydro-1H-inden-1-ylamino]methyl}phenyl)-N-(5-hydroxypentyl)pyrazine-2-carboxamide]
≤ 5.00	Nc1ncc(-c2cccc(C(=O)NCc3ccccc3)c2)nc1C(=O)c1cc(F)cc(F)c1 [Example 578, 3-{5-amino-6-[(3,5-difluorophenyl)carbonyl]pyrazin-2-yl}-N-(phenylmethyl)benzamide]
6.00 to 7.30	Nc1ncc(-c2cccc(C(=O)NCc3ccccn3)c2)nc1C(=O)N[C@H]1CCNC1 [Example 761, 3-amino-6-(3-{[(pyridin-2-ylmethyl)amino]carbonyl}phenyl)-N-[(3S)-pyrrolidin-3-yl]pyrazine-2-carboxamide]
6.00 to 7.30	Nc1ncc(-c2cccc(CN[C@H]3CCc4ccccc43)c2)nc1C(=O)NCCO [Example 547, 3-amino-6-(3-{[(1S)-2,3-dihydro-1H-inden-1-ylamino]methyl}phenyl)-N-(2-hydroxyethyl)pyrazine-2-carboxamide]
6.00 to 7.30	CN(C)CCNC(=O)c1nc(-c2cccc(CN[C@H]3CCc4ccccc43)c2)cnc1N [Example 556, 3-amino-6-(3-{[(1S)-2,3-dihydro-1H-inden-1-ylamino]methyl}phenyl)-N-[2-(dimethylamino)ethyl]pyrazine-2-carboxamide]
6.00 to 7.30	CNC(=O)c1nc(-c2cccc(CNC3CCc4c(OCCN5CCOCC5)cccc43)c2)cnc1N (centres unmarked) [Example 514, 3-amino-N-methyl-6-{3-[({4-[(2-morpholin-4-ylethyl)oxy]-2,3-dihydro-1H-inden-1-yl}amino)methyl]phenyl}pyrazine-2-carboxamide]
≤ 5.00	CN(C)c1ccc(C(=O)NCCCNC(=O)c2nc(-c3cccc(C(=O)NCc4ccccc4)c3)cnc2N)cc1 [Example 684, 3-amino-N-[3-({[4-(dimethylamino)phenyl]carbonyl}amino)propyl]-6-(3-{[(phenylmethyl)amino]carbonyl}phenyl)pyrazine-2-carboxamide]
6.00 to 7.30	CCNC(=O)c1nc(-c2cccc(CNC3CCc4cc(F)cc(F)c43)c2)cnc1N (centres unmarked) [Example 489, 3-amino-6-(3-{[(5,7-difluoro-2,3-dihydro-1H-inden-1-yl)amino]methyl}phenyl)-N-ethylpyrazine-2-carboxamide]
6.00 to 7.30	Nc1ncc(-c2cccc(C(=O)NCc3ccccc3)c2)nc1C(=O)NCC1CCNCC1 [Example 565, 3-amino-6-(3-{[(phenylmethyl)amino]carbonyl}phenyl)-N-(piperidin-4-ylmethyl)pyrazine-2-carboxamide]
6.00 to 7.30	Nc1ncc(-c2cccc(CO)c2)nc1-c1nc(C2CNCCO2)n[nH]1 (centres unmarked) [Example 703, {3-[5-amino-6-(3-morpholin-2-yl-1H-1,2,4-triazol-5-yl)pyrazin-2-yl]phenyl}methanol]
≤ 5.00	CC(C)(C)OC(=O)NCCCNC(=O)c1nc(-c2cccc(C(=O)NCc3ccccc3)c2)cnc1N [Example 612, 1,1-dimethylethyl [3-({[3-amino-6-(3-{[(phenylmethyl)amino]carbonyl}phenyl)pyrazin-2-yl]carbonyl}amino)propyl]carbamate]

Same assay, conditions: read-out: Chk1 IC50

pIC50	SMILES
≤ 5.00	CNC(=O)c1nc(-c2noc(Cc3ccccc3)n2)cnc1N [Example 70, 3-amino-N-methyl-6-[5-(phenylmethyl)-1,2,4-oxadiazol-3-yl]pyrazine-2-carboxamide]
6.00 to 7.30	CNC(=O)c1nc(-c2cccc(C(=O)NCc3cccc(F)c3)c2)cnc1N [Example 110, 3-amino-6-[3-({[(3-fluorophenyl)methyl]amino}carbonyl)phenyl]-N-methylpyrazine-2-carboxamide]
6.00 to 7.30	CNC(=O)c1nc(-c2cc(C(=O)NCc3ccccc3)ccc2F)cnc1N [Example 368, 3-amino-6-(2-fluoro-5-{[(phenylmethyl)amino]carbonyl}phenyl)-N-methylpyrazine-2-carboxamide]
6.00 to 7.30	CNC(=O)c1nc(-c2cccc(C(=O)NCc3cccc(Br)c3)c2)cnc1N [Example 239, 3-amino-6-[3-({[(3-bromophenyl)methyl]amino}carbonyl)phenyl]-N-methylpyrazine-2-carboxamide]
6.00 to 7.30	CNC(=O)c1nc(-c2cccc(C(=O)NCc3cc(F)ccc3C)c2)cnc1N [Example 287, 3-amino-6-[3-({[(5-fluoro-2-methylphenyl)methyl]amino}carbonyl)phenyl]-N-methylpyrazine-2-carboxamide]
≤ 5.00	CNC(=O)c1nc(-c2cccc(C(=O)O)c2)cnc1N [Example 92, 3-{5-amino-6-[(methylamino)carbonyl]pyrazin-2-yl}benzoic acid]
5.00 to 6.00	CNC(=O)c1nc(-c2ccc(OC)c(OC)c2)cnc1N [Example 80, 3-amino-6-[3,4-bis(methyloxy)phenyl]-N-methylpyrazine-2-carboxamide]
6.00 to 7.30	CNC(=O)c1nc(-c2cccc(C(=O)NCc3ccc(C(F)(F)F)cc3)c2)cnc1N [Example 102, 3-amino-N-methyl-6-{3-[({[4-(trifluoromethyl)phenyl]methyl}amino)carbonyl]phenyl}pyrazine-2-carboxamide]
6.00 to 7.30	CNC(=O)c1nc(-c2cccc(C(=O)NCC(c3ccccc3)c3ccccc3)c2)cnc1N [Example 263, 3-amino-6-(3-{[(2,2-diphenylethyl)amino]carbonyl}phenyl)-N-methylpyrazine-2-carboxamide]
> 7.30	CNC(=O)c1nc(-c2cccc(CNCc3ccccc3F)c2)cnc1N [Example 399, 3-amino-6-[3-({[(2-fluorophenyl)methyl]amino}methyl)phenyl]-N-methylpyrazine-2-carboxamide]
≤ 5.00	CNC(=O)c1nc(-c2cccc(C(=O)NC3c4ccccc4-c4ccccc43)c2)cnc1N [Example 284, 3-amino-6-{3-[(9H-fluoren-9-ylamino)carbonyl]phenyl}-N-methylpyrazine-2-carboxamide]
6.00 to 7.30	CNC(=O)c1nc(-c2cccc(C(=O)NCc3ccccc3Cl)c2)cnc1N [Example 128, 3-amino-6-[3-({[(2-chlorophenyl)methyl]amino}carbonyl)phenyl]-N-methylpyrazine-2-carboxamide]
6.00 to 7.30	CNC(=O)c1nc(-c2cccc(C(=O)NCCc3ccccc3OC)c2)cnc1N [Example 130, 3-amino-N-methyl-6-{3-[({2-[2-(methyloxy)phenyl]ethyl}amino)carbonyl]phenyl}pyrazine-2-carboxamide]
